Reference: article PMC6478823, “A suite of phenotypic assays to ensure pipeline diversity when prioritizing drug-like Cryptosporidium growth inhibitors” (Nature Communications, 2019)

Tests used:
Assay type in all cases: cell-based, Cryptosporidium parvum
C. parvum [1] = assay: DNA replication assay (EdU incorporation); details: compound at EC90; for DNA Synthesis Assay: Mean % Inhibition of EdU-labeling (normalized to parasite numbers), Average: average of replicates; for DNA Synthesis Assay: Mean % Inhibition of EdU-labeling (normalized to parasite numbers), Replicate 1: single replicate 1; for DNA Synthesis Assay: Mean % Inhibition of EdU-labeling (normalized to parasite numbers), Replicate 2: single replicate 2; for DNA Synthesis Assay: Mean % Inhibition of EdU-labeling (normalized to parasite numbers), Replicate 3: single replicate 3
C. parvum [2] = details: compound at EC90; for Invasion Assay: Mean % Inhibition (parasites), Average: average of replicates; for Invasion Assay: Mean % Inhibition (parasites), Replicate 1a: single biological replicate 1; for Invasion Assay: Mean % Inhibition (parasites), Replicate 2a: single biological replicate 2
[3] = system: C. parvum DMC1 expression; assay: Sexual differentiation assay (DMC1 expression); details: compound at asexual EC90, 48-72 h; for Asexual to sexual differentiation: Mean % DMC1 inhibition (normalized to host nuclei), Average: average of replicates; for Asexual to sexual differentiation: Mean % DMC1 inhibition (normalized to host nuclei), Replicate 1a: single replicate 1; for Asexual to sexual differentiation: Mean % DMC1 inhibition (normalized to host nuclei), Replicate 2a: single replicate 2
Method in brief: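 High-content microscopy of infected cells fixed at set times post-infection, stained with anti-DMC1 mAb 1H10G7, Vicia villosa lectin and Hoechst; lectin-positive parasites counted, then DMC1-positive.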

## Cc1cccc(-n2ncc3c(=O)[nH]c(-n4nc(C)cc4NC(=O)C4CC4)nc32)c1 [C-4]
C. parvum [1]
  DNA Synthesis Assay: Mean % Inhibition of EdU-labeling (normalized to parasite numbers), Average: 99.18%
  DNA Synthesis Assay: Mean % Inhibition of EdU-labeling (normalized to parasite numbers), Replicate 1: 98.37%
  DNA Synthesis Assay: Mean % Inhibition of EdU-labeling (normalized to parasite numbers), Replicate 2: 100.00%
C. parvum [2]
  Invasion Assay: Mean % Inhibition (parasites), Average: 9.11%
  Invasion Assay: Mean % Inhibition (parasites), Replicate 1a: 19%
  Invasion Assay: Mean % Inhibition (parasites), Replicate 2a: -1.12%
[3]
  Asexual to sexual differentiation: Mean % DMC1 inhibition (normalized to host nuclei), Average: 64.12%
  Asexual to sexual differentiation: Mean % DMC1 inhibition (normalized to host nuclei), Replicate 1a: 60.65%
  Asexual to sexual differentiation: Mean % DMC1 inhibition (normalized to host nuclei), Replicate 2a: 67.59%

## CCOc1ccc(Cl)c2c1B(O)OC2CN (stereo not drawn) [AN6426]
C. parvum [1]
  DNA Synthesis Assay: Mean % Inhibition of EdU-labeling (normalized to parasite numbers), Average: 86.81%
  DNA Synthesis Assay: Mean % Inhibition of EdU-labeling (normalized to parasite numbers), Replicate 1: 80.80%
  DNA Synthesis Assay: Mean % Inhibition of EdU-labeling (normalized to parasite numbers), Replicate 2: 89.13%
  DNA Synthesis Assay: Mean % Inhibition of EdU-labeling (normalized to parasite numbers), Replicate 3: 90.50%
C. parvum [2]
  Invasion Assay: Mean % Inhibition (parasites), Average: -16.44%
  Invasion Assay: Mean % Inhibition (parasites), Replicate 1a: -18%
  Invasion Assay: Mean % Inhibition (parasites), Replicate 2a: -15%
[3]
  Asexual to sexual differentiation: Mean % DMC1 inhibition (normalized to host nuclei), Average: 62.47%
  Asexual to sexual differentiation: Mean % DMC1 inhibition (normalized to host nuclei), Replicate 1a: 60.83%
  Asexual to sexual differentiation: Mean % DMC1 inhibition (normalized to host nuclei), Replicate 2a: 64.12%

## NC[C@@H]1O[C@H](O[C@H]2[C@@H](O)[C@H](O[C@@H]3[C@@H](O)[C@H](N)C[C@H](N)[C@H]3O[C@H]3O[C@H](CO)[C@@H](O)[C@H](O)[C@H]3N)O[C@@H]2CO)[C@H](N)[C@@H](O)[C@@H]1O [Paromomycin]
C. parvum [1]
  DNA Synthesis Assay: Mean % Inhibition of EdU-labeling (normalized to parasite numbers), Average: 18.81%
  DNA Synthesis Assay: Mean % Inhibition of EdU-labeling (normalized to parasite numbers), Replicate 1: -11.54%
  DNA Synthesis Assay: Mean % Inhibition of EdU-labeling (normalized to parasite numbers), Replicate 2: 39.99%
  DNA Synthesis Assay: Mean % Inhibition of EdU-labeling (normalized to parasite numbers), Replicate 3: 27.99%
C. parvum [1]; result in words
  effect on C. parvum DNA replication / EdU incorporation: no effect on EdU incorporation
C. parvum [2]
  Invasion Assay: Mean % Inhibition (parasites), Average: -28.42%
  Invasion Assay: Mean % Inhibition (parasites), Replicate 1a: -32%
  Invasion Assay: Mean % Inhibition (parasites), Replicate 2a: -25%
C. parvum [2]; result in words
  effect on host cell invasion / parasitophorous vacuole formation: no significant effect on parasitophorous vacuole formation
[3]
  Asexual to sexual differentiation: Mean % DMC1 inhibition (normalized to host nuclei), Average: 43.80%
  Asexual to sexual differentiation: Mean % DMC1 inhibition (normalized to host nuclei), Replicate 1a: 58.59%
  Asexual to sexual differentiation: Mean % DMC1 inhibition (normalized to host nuclei), Replicate 2a: 65.91%
[3]; single replicate 3
  Asexual to sexual differentiation: Mean % DMC1 inhibition (normalized to host nuclei), Replicate 3a: 6.88%

## CC(C)/N=c1\cc2n(-c3ccc(Cl)cc3)c3ccccc3nc-2cc1Nc1ccc(Cl)cc1 [Clofazimine]
C. parvum [1]
  DNA Synthesis Assay: Mean % Inhibition of EdU-labeling (normalized to parasite numbers), Average: 88.58%
  DNA Synthesis Assay: Mean % Inhibition of EdU-labeling (normalized to parasite numbers), Replicate 1: 99.92%
  DNA Synthesis Assay: Mean % Inhibition of EdU-labeling (normalized to parasite numbers), Replicate 2: 100.00%
  DNA Synthesis Assay: Mean % Inhibition of EdU-labeling (normalized to parasite numbers), Replicate 3: 87.22%
C. parvum [1]; single replicate 4
  DNA Synthesis Assay: Mean % Inhibition of EdU-labeling (normalized to parasite numbers), Replicate 4: 73.51%
C. parvum [1]; single replicate 5
  DNA Synthesis Assay: Mean % Inhibition of EdU-labeling (normalized to parasite numbers), Replicate 5: 82.28%
C. parvum [2]
  Invasion Assay: Mean % Inhibition (parasites), Average: 66.45%
  Invasion Assay: Mean % Inhibition (parasites), Replicate 1a: 65%
  Invasion Assay: Mean % Inhibition (parasites), Replicate 2a: 68%
[3]
  Asexual to sexual differentiation: Mean % DMC1 inhibition (normalized to host nuclei), Average: 89.18%
  Asexual to sexual differentiation: Mean % DMC1 inhibition (normalized to host nuclei), Replicate 1a: 91.44%
  Asexual to sexual differentiation: Mean % DMC1 inhibition (normalized to host nuclei), Replicate 2a: 86.93%

## CCC(C)n1ncn(-c2ccc(N3CCN(c4ccc(OCC5COC(Cn6cncn6)(c6ccc(Cl)cc6Cl)O5)cc4)CC3)cc2)c1=O (stereo not drawn) [Itraconazole]
C. parvum [1]
  DNA Synthesis Assay: Mean % Inhibition of EdU-labeling (normalized to parasite numbers), Average: -4.89%
  DNA Synthesis Assay: Mean % Inhibition of EdU-labeling (normalized to parasite numbers), Replicate 1: 6.01%
  DNA Synthesis Assay: Mean % Inhibition of EdU-labeling (normalized to parasite numbers), Replicate 2: -18.49%
  DNA Synthesis Assay: Mean % Inhibition of EdU-labeling (normalized to parasite numbers), Replicate 3: -2.19%
C. parvum [2]
  Invasion Assay: Mean % Inhibition (parasites), Average: -29.72%
  Invasion Assay: Mean % Inhibition (parasites), Replicate 1a: -31%
  Invasion Assay: Mean % Inhibition (parasites), Replicate 2a: -28%
[3]
  Asexual to sexual differentiation: Mean % DMC1 inhibition (normalized to host nuclei), Average: 63.93%
  Asexual to sexual differentiation: Mean % DMC1 inhibition (normalized to host nuclei), Replicate 1a: 87.85%
  Asexual to sexual differentiation: Mean % DMC1 inhibition (normalized to host nuclei), Replicate 2a: 40.00%
